# Laboratory results published in patent publication US6737383B1, “Herbicidal oxadiazolidines” (priority 1999, dated 2004).
# Legend:
# blackgrass = test: Test B pre/postemergence blackgrass; format: in vivo, Alopecurus myosuroides
# Method in brief: (§1)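 Herbicidal effect was estimated by eye on a ten-point control scale after plants spent twelve to sixteen days in a greenhouse following soil or foliar treatment. Foliar sprays targeted plants at one to four leaves; all doses were formulated in a non-phytotoxic solvent with surfactant.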
# morningglory = test: Test B pre/postemergence morningglory; format: in vivo, Ipomoea hederacea
# Method in brief: as §1
# surinam grass = test: Test B pre/postemergence surinam grass; format: in vivo, Brachiaria decumbens
# Method in brief: as §1
# sugar beet = test: Test B pre/postemergence sugar beet; format: in vivo, Beta vulgaris
# Method in brief: as §1
# cocklebur = test: Test B pre/postemergence cocklebur; format: in vivo, Xanthium strumarium
# Method in brief: as §1
# purple nutsedge = test: Test B pre/postemergence purple nutsedge; format: in vivo, Cyperus rotundus
# Method in brief: as §1
# crabgrass = test: Test B pre/postemergence crabgrass; format: in vivo, Digitaria sanguinalis
# Method in brief: as §1
# giant foxtail = test: Test B pre/postemergence giant foxtail; format: in vivo, Setaria faberii
# Method in brief: as §1
# smallflower flatsedge = test: Test B flood test smallflower flatsedge; format: in vivo, Cyperus difformis
# Method in brief: (§2)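 Each value is a visual injury score relative to controls, with 10 meaning complete control and 0 no effect. Evaluation took place twelve to sixteen days after the 2-leaf-stage plants were treated and kept in the greenhouse.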
# rape = test: Test B pre/postemergence rape; format: in vivo, Brassica napus
# Method in brief: as §1
# velvetleaf = test: Test B pre/postemergence velvetleaf; format: in vivo, Abutilon theophrasti
# Method in brief: as §1
# corn = test: Test B pre/postemergence corn; format: in vivo, Zea mays
# Method in brief: as §1
# duck salad = test: Test B flood test duck salad; format: in vivo, Heteranthera limosa
# Method in brief: as §2
# wheat = test: Test B pre/postemergence wheat; format: in vivo, Triticum aestivum
# Method in brief: as §1
# rice = test: Test B flood test rice; format: in vivo, Oryza sativa
# Method in brief: as §2
# pigweed = test: Test B pre/postemergence pigweed; format: in vivo, Amaranthus retroflexus
# Method in brief: as §1
# [1] = Postemergence, Rate 125 g/ha, scale of 0 to 10 where 0 is no effect and 10 is complete control
# [2] = Preemergence, Rate 62 g/ha, scale of 0 to 10 where 0 is no effect and 10 is complete control
# [3] = Preemergence, Rate 125 g/ha, 0 is no effect, 10 is complete control
# [4] = Preemergence, Rate 250 g/ha, scale 0 to 10, 0 is no effect, 10 is complete control
# [5] = Preemergence, Rate 500 g/ha, scale 0 to 10 (0 no effect, 10 complete control)
# [6] = Rate 62 g/ha, Postemergence, scale of 0 to 10 where 0 is no effect and 10 is complete control
# [7] = Rate 250 g/ha, Postemergence, scale 0 to 10, 0 is no effect, 10 is complete control
# [8] = Rate 500 g/ha, Postemergence, scale 0 to 10
# [9] = Rate 62 g/ha, headed Pre-emergence (flood test species), scale 0 to 10 (0 no effect, 10 complete control)
# [10] = Rate 125 g/ha, Pre-emergence, flood test species, scale 0 to 10 where 0 is no effect and 10 is complete control
# [11] = Rate 250 g/ha, Pre-emergence, flood-test species, scale 0 to 10, 0 is no effect, 10 is complete control
# [12] = Rate 500 g/ha, headed Pre-emergence (flood test species), scale 0 to 10 (0 no effect, 10 complete control)
structure (smiles),measurement,setting,value
CCN(Cc1ccccc1)C(=O)n1oc(=O)n(C(C)C)c1=O [Compound 166],Blackgrass plant response rating,blackgrass; [1],4
same,Blackgrass plant response rating,blackgrass; [2],0
same,Blackgrass plant response rating (0 to 10 scale),blackgrass; [3],0
same,Blackgrass plant response rating,blackgrass; [4],4
same,Blackgrass plant response rating,blackgrass; [5],5
same,Blackgrass plant response rating,blackgrass; [6],0
same,"Plant response rating, Blackgrass",blackgrass; [7],7
same,Blackgrass plant response rating,blackgrass; [8],8
same,Morningglory plant response rating,morningglory; [1],1
same,Morningglory plant response rating,morningglory; [2],0
same,Morningglory plant response rating (0 to 10 scale),morningglory; [3],0
same,Morningglory plant response rating,morningglory; [4],0
same,Morningglory plant response rating,morningglory; [5],0
same,Morningglory plant response rating,morningglory; [6],1
same,"Plant response rating, Morningglory",morningglory; [7],2
same,Morningglory plant response rating,morningglory; [8],2
same,B. signalgrass plant response rating,surinam grass; [1],0
same,B. signalgrass plant response rating,surinam grass; [2],0
same,B. signalgrass plant response rating (0 to 10 scale),surinam grass; [3],0
same,B. signalgrass plant response rating,surinam grass; [4],0
same,B. signalgrass plant response rating,surinam grass; [5],4
same,B. signalgrass plant response rating,surinam grass; [6],0
same,"Plant response rating, B. signalgrass",surinam grass; [7],0
same,B. signalgrass plant response rating,"surinam grass; Rate 500 g/ha, Postemergence, scale 0 to 10, 0 no effect, 10 complete control",0
same,Sugarbeets plant response rating,sugar beet; [1],0
same,Sugarbeets plant response rating,sugar beet; [2],0
same,Sugarbeets plant response rating (0 to 10 scale),sugar beet; [3],0
same,Sugarbeets plant response rating,sugar beet; [4],0
same,Sugarbeets plant response rating,sugar beet; [5],0
same,Sugarbeets plant response rating,sugar beet; [6],0
same,"Plant response rating, Sugarbeets",sugar beet; [7],0
same,Sugarbeets plant response rating,sugar beet; [8],0
same,Cocklebur plant response rating,cocklebur; [1],0
same,Cocklebur plant response rating,cocklebur; [2],0
same,Cocklebur plant response rating (0 to 10 scale),cocklebur; [3],0
same,Cocklebur plant response rating,cocklebur; [4],0
same,Cocklebur plant response rating,cocklebur; [5],0
same,Cocklebur plant response rating,cocklebur; [6],0
same,"Plant response rating, Cocklebur",cocklebur; [7],0
same,Cocklebur plant response rating,cocklebur; [8],0
same,Nutsedge plant response rating,purple nutsedge; [1],0
same,Nutsedge plant response rating (0 to 10 scale),purple nutsedge; [3],0
same,Nutsedge plant response rating,purple nutsedge; [4],0
same,Nutsedge plant response rating,purple nutsedge; [5],0
same,Nutsedge plant response rating,purple nutsedge; [6],0
same,"Plant response rating, Nutsedge",purple nutsedge; [7],0
same,Nutsedge plant response rating,purple nutsedge; [8],0
same,Crabgrass plant response rating,crabgrass; [1],1
same,Crabgrass plant response rating,crabgrass; [2],4
same,Crabgrass plant response rating (0 to 10 scale),crabgrass; [3],4
same,Crabgrass plant response rating,crabgrass; [4],7
same,Crabgrass plant response rating,crabgrass; [5],7
same,Crabgrass plant response rating,crabgrass; [6],0
same,"Plant response rating, Crabgrass",crabgrass; [7],3
same,Crabgrass plant response rating,crabgrass; [8],4
same,Giant foxtail plant response rating,giant foxtail; [1],0
same,Giant foxtail plant response rating,giant foxtail; [2],3
same,Giant foxtail plant response rating (0 to 10 scale),giant foxtail; [3],5
same,Giant foxtail plant response rating,giant foxtail; [4],5
same,Giant foxtail plant response rating,giant foxtail; [5],7
same,Giant foxtail plant response rating,giant foxtail; [6],0
same,"Plant response rating, Giant foxtail",giant foxtail; [7],1
same,Giant foxtail plant response rating,giant foxtail; [8],4
same,S. Flatsedge plant response rating,smallflower flatsedge; [9],0
same,S. Flatsedge plant response rating,smallflower flatsedge; [10],0
same,S. Flatsedge plant response rating,smallflower flatsedge; [11],0
same,S. Flatsedge plant response rating,"smallflower flatsedge; Rate 500 g/ha, Pre-emergence, flood test species, scale 0 to 10 (0 no effect, 10 complete control)",0
same,Rape plant response rating,rape; [1],0
same,Rape plant response rating,rape; [2],0
same,Rape plant response rating (0 to 10 scale),rape; [3],0
same,Rape plant response rating,rape; [4],0
same,Rape plant response rating,rape; [5],0
same,Rape plant response rating,rape; [6],0
same,"Plant response rating, Rape",rape; [7],0
same,Velvetleaf plant response rating,velvetleaf; [2],0
same,Velvetleaf plant response rating (0 to 10 scale),velvetleaf; [3],0
same,Velvetleaf plant response rating,velvetleaf; [4],5
same,Velvetleaf plant response rating,velvetleaf; [5],6
same,"Plant response rating, Velvetleaf",velvetleaf; [7],0
same,Velvetleaf plant response rating,velvetleaf; [8],0
same,Corn plant response rating,corn; [1],0
same,Corn plant response rating,corn; [2],0
same,Corn plant response rating (0 to 10 scale),corn; [3],0
same,Corn plant response rating,corn; [4],0
same,Corn plant response rating,corn; [5],0
same,Corn plant response rating,corn; [6],0
same,"Plant response rating, Corn",corn; [7],0
same,Corn plant response rating,corn; [8],0
same,Ducksalad plant response rating,duck salad; [9],0
same,Ducksalad plant response rating,duck salad; [10],0
same,Ducksalad plant response rating,duck salad; [11],0
same,"Plant response rating, Ducksalad",duck salad; [12],0
same,Wheat plant response rating,wheat; [2],0
same,Wheat plant response rating (0 to 10 scale),wheat; [3],0
same,Wheat plant response rating,wheat; [4],0
same,Wheat plant response rating,wheat; [5],0
same,"Plant response rating, Wheat",wheat; [7],0
same,Wheat plant response rating,wheat; [8],3
same,Rice plant response rating,rice; [9],0
same,Rice plant response rating,rice; [10],0
same,Rice plant response rating,rice; [11],0
same,"Plant response rating, Rice",rice; [12],0
same,Redroot pigweed plant response rating,pigweed; [1],0
same,Redroot pigweed plant response rating,pigweed; [2],0
same,Redroot pigweed plant response rating (0 to 10 scale),pigweed; [3],0
same,Redroot pigweed plant response rating,pigweed; [4],0
same,Redroot pigweed plant response rating,pigweed; [5],0
same,Redroot pigweed plant response rating,pigweed; [6],0
same,"Plant response rating, Redroot pigweed",pigweed; [7],2
same,Redroot pigweed plant response rating,pigweed; [8],3
